Source: US5916904A, “Antimicrobial agent” (Eisai Co., Ltd., priority 1992, dated 1999)
Values after ≈ are worked out from the molar mass of the structure shown.

Columns and labels:
C. pylori EI-930 = assay: MIC by agar dilution method, C. pylori clinical isolate EI-930; format: cell-based; conditions: Helicobacter pylori, EI930, 72 h; EI-930, clinical isolate; in vitro, 37° C., pH 7.0, 3 days, microaerophilic; read-out: antibiotic activity (MIC)
C. pylori EI-612 = assay: MIC by agar dilution method, C. pylori clinical isolate EI-612; format: cell-based; conditions: Helicobacter pylori, EI612, 72 h; EI-612, clinical isolate; in vitro, 37° C., pH 7.0, 3 days, microaerophilic; read-out: antibiotic activity (MIC)
C. pylori EI-933 = assay: MIC by agar dilution method, C. pylori clinical isolate EI-933; format: cell-based; conditions: Helicobacter pylori, EI933, 72 h; EI-933, clinical isolate; in vitro, 37° C., pH 7.0, 3 days, microaerophilic; read-out: antibiotic activity (MIC)
C. pylori NCTC11637 = assay: MIC by agar dilution method, C. pylori standard strain NCTC11637; format: cell-based; conditions: Helicobacter pylori, 72 h, in vitro, 37° C., pH 7.0, 3 days, microaerophilic, read-out: antibiotic activity (MIC)
C. pylori EI-429 = assay: MIC by agar dilution method, C. pylori clinical isolate EI-429; format: cell-based; conditions: Helicobacter pylori, EI429, 72 h; EI-429, clinical isolate; in vitro, 37° C., pH 7.0, 3 days, microaerophilic; read-out: antibiotic activity (MIC)
C. pylori EI-46 = assay: MIC by agar dilution method, C. pylori clinical isolate EI-46; format: cell-based; conditions: Helicobacter pylori, EI46, 72 h; EI-46, clinical isolate (resistant); in vitro, 37° C., pH 7.0, 3 days, microaerophilic; read-out: antibiotic activity (MIC)
C. pylori NCTC11916 = assay: MIC by agar dilution method, C. pylori standard strain NCTC11916; format: cell-based; conditions: Helicobacter pylori, 72 h, in vitro, 37° C., pH 7.0, 3 days, microaerophilic, read-out: antibiotic activity (MIC)
C. pylori EI-391 = assay: MIC by agar dilution method, C. pylori clinical isolate EI-391; format: cell-based; conditions: Helicobacter pylori, EI391, 72 h; EI-391, clinical isolate (resistant); in vitro, 37° C., pH 7.0, 3 days, microaerophilic; read-out: antibiotic activity (MIC)
C. pylori EI-2 = assay: MIC by agar dilution method, C. pylori clinical isolate EI-2; format: cell-based; conditions: Helicobacter pylori, EI2, 72 h; EI-2, clinical isolate; in vitro, 37° C., pH 7.0, 3 days, microaerophilic; read-out: antibiotic activity (MIC)
C. pylori EI-5 = assay: MIC by agar dilution method, C. pylori clinical isolate EI-5; format: cell-based; conditions: Helicobacter pylori, EI5, 72 h; EI-5, clinical isolate; in vitro, 37° C., pH 7.0, 3 days, microaerophilic; read-out: antibiotic activity (MIC)
C. pylori EI-467 = assay: MIC by agar dilution method, C. pylori clinical isolate EI-467; format: cell-based; conditions: Helicobacter pylori, EI467, 72 h; EI-467, clinical isolate; in vitro, 37° C., pH 7.0, 3 days, microaerophilic; read-out: antibiotic activity (MIC)
C. pylori EI-397 = assay: MIC by agar dilution method, C. pylori clinical isolate EI-397; format: cell-based; conditions: Helicobacter pylori, EI397, 72 h; EI-397, clinical isolate; in vitro, 37° C., pH 7.0, 3 days, microaerophilic; read-out: antibiotic activity (MIC)
C. pylori EI-36 = assay: MIC by agar dilution method, C. pylori clinical isolate EI-36; format: cell-based; conditions: Helicobacter pylori, EI36, 72 h; EI-36, clinical isolate; in vitro, 37° C., pH 7.0, 3 days, microaerophilic; read-out: antibiotic activity (MIC)
C. pylori EI-925 = assay: MIC by agar dilution method, C. pylori clinical isolate EI-925; format: cell-based; conditions: Helicobacter pylori, EI925, 72 h; EI-925, clinical isolate; in vitro, 37° C., pH 7.0, 3 days, microaerophilic; read-out: antibiotic activity (MIC)
C. pylori EI-393 = assay: MIC by agar dilution method, C. pylori clinical isolate EI-393; format: cell-based; conditions: Helicobacter pylori, EI393, 72 h; EI-393, clinical isolate; in vitro, 37° C., pH 7.0, 3 days, microaerophilic; read-out: antibiotic activity (MIC)
[1] = tested on: C. pylori NCTC-11916, NCTC-11637, PCL-56, CPY-0011-1, KS-13, CLO-1 and CLO-6; conditions: standard strains and clinical isolates; JP-A 3-173817; cited from earlier work
C. pylori [2] = conditions: JP-A 2-209809 and JP-A 3-173817; cited from earlier work
C. pylori 8005 = conditions: C. pylori 8005, clinical isolate; JP-A 2-209809; cited from earlier work
C. pylori [3] = assay: antibiotic activity against C. pylori, overall conclusion; format: cell-based; conditions: compared with antibiotic substances / known compounds
[4] = Acute Toxicological Test in mice; conditions: mouse, in vivo, one time
Procedure: (§1) The compound (I) of the invention was administered Intravenously or orally one time, with a carrier of saline, to Slc:SD rats and Slc:ICR mouse, each being 7 or 8 weeks old, in a group consisting of five males and five females, to determine LD50 values.
(§2) Acute toxicity of the compound (I) is shown in terms of LD50 in unit of mg/kg.

[5] = Acute Toxicological Test in rats; conditions: rat, in vivo, one time
Procedure: as §1, §2

Compound	MIC (C. pylori EI-930)	MIC (C. pylori EI-612)	MIC (C. pylori EI-933)	MIC (C. pylori NCTC11637)	MIC (C. pylori EI-429)	MIC (C. pylori EI-46)	MIC (C. pylori NCTC11916)	MIC (C. pylori EI-391)	MIC (C. pylori EI-2)	MIC (C. pylori EI-5)	MIC (C. pylori EI-467)	MIC (C. pylori EI-397)	MIC (C. pylori EI-36)	MIC (C. pylori EI-925)	MIC (C. pylori EI-393)	other results
CC1(C)S[C@@H]2[C@H](NC(=O)[C@H](N)c3ccccc3)C(=O)N2[C@H]1C(=O)O [(VII), ampicillin]	0.4 µg/mL (≈ 1.14 µM)	0.05 µg/mL (≈ 0.143 µM)	0.05 µg/mL (≈ 0.143 µM)	0.4 µg/mL (≈ 1.14 µM)	0.2 µg/mL (≈ 0.572 µM)	0.05 µg/mL (≈ 0.143 µM)	0.05 µg/mL (≈ 0.143 µM)	0.1 µg/mL (≈ 0.286 µM)	0.4 µg/mL (≈ 1.14 µM)	0.4 µg/mL (≈ 1.14 µM)	0.05 µg/mL (≈ 0.143 µM)	0.1 µg/mL (≈ 0.286 µM)	0.2 µg/mL (≈ 0.572 µM)	0.2 µg/mL (≈ 0.572 µM)	0.1 µg/mL (≈ 0.286 µM)	
Cc1c(OCC(F)(F)C(F)(F)F)ccnc1CSc1nc2ccccc2[nH]1 [JP-A 3-173817 compound (13), 2-[{3-Methyl-4-(2,2,3,3,3-pentafluoropropoxy)pyrid-2-yl}methylthio]-1H-benzimidazole]																antibiotic activity [1]: activity against all the tested strains
COc1ccc2[nH]c([S+]([O-])Cc3ncc(C)c(OC)c3C)nc2c1 (stereo not drawn) [(III), 5-Methoxy-2-[{(4-methoxy-3,5-dimethyl-2-pyridinyl)methyl}sulfinyl]-1H-benzimidazole]	25 µg/mL (≈ 72.4 µM)	25 µg/mL (≈ 72.4 µM)	25 µg/mL (≈ 72.4 µM)	50 µg/mL (≈ 145 µM)	25 µg/mL (≈ 72.4 µM)	25 µg/mL (≈ 72.4 µM)	25 µg/mL (≈ 72.4 µM)	50 µg/mL (≈ 145 µM)	25 µg/mL (≈ 72.4 µM)	50 µg/mL (≈ 145 µM)	50 µg/mL (≈ 145 µM)	50 µg/mL (≈ 145 µM)	25 µg/mL (≈ 72.4 µM)	25 µg/mL (≈ 72.4 µM)	50 µg/mL (≈ 145 µM)	antibiotic activity (C. pylori [2]): lacks sufficient antibiotic activity; antibiotic activity (C. pylori 8005): has antibiotic activity against C. pylori 8005
Cc1c(OCC(F)(F)C(F)(F)C(F)F)ccnc1CSc1nc2ccccc2[nH]1 [JP-A 3-173817 compound (14), 2-[{3-Methyl-4-(2,2,3,3,4,4-hexafluorobutoxy)pyrid-2-yl}methylthio]-1H-benzimidazole]																antibiotic activity [1]: activity against all the tested strains
COCCCOc1ccnc(CSc2nc3ccccc3[nH]2)c1C [(II), 2-[(4-(3-Methoxypropoxy)-3-methylpyridine-2-yl)-methylthio]-1H-benzimidazole]	0.4 µg/mL (≈ 1.16 µM)	0.8 µg/mL (≈ 2.33 µM)	0.8 µg/mL (≈ 2.33 µM)	0.8 µg/mL (≈ 2.33 µM)	1.56 µg/mL (≈ 4.54 µM)	0.4 µg/mL (≈ 1.16 µM)	0.2 µg/mL (≈ 0.582 µM)	1.56 µg/mL (≈ 4.54 µM)	0.4 µg/mL (≈ 1.16 µM)	0.2 µg/mL (≈ 0.582 µM)	1.56 µg/mL (≈ 4.54 µM)	1.56 µg/mL (≈ 4.54 µM)	0.4 µg/mL (≈ 1.16 µM)	0.4 µg/mL (≈ 1.16 µM)	1.56 µg/mL (≈ 4.54 µM)	C. pylori-eradicating activity (C. pylori [3]): the same C. pylori-eradicating activity as an antibiotic substance
COc1ccc2[nH]c(SCc3ncc(C)c(OC)c3C)nc2c1 [(IV), 5-Methoxy-2-{(4-methoxy-3,5-dimethyl-2-pyridinyl)methylthio}-1H-benzimidazole]	12.5 µg/mL (≈ 37.9 µM)	12.5 µg/mL (≈ 37.9 µM)	12.5 µg/mL (≈ 37.9 µM)	25 µg/mL (≈ 75.9 µM)	25 µg/mL (≈ 75.9 µM)	12.5 µg/mL (≈ 37.9 µM)	12.5 µg/mL (≈ 37.9 µM)	25 µg/mL (≈ 75.9 µM)	25 µg/mL (≈ 75.9 µM)	25 µg/mL (≈ 75.9 µM)	12.5 µg/mL (≈ 37.9 µM)	25 µg/mL (≈ 75.9 µM)	12.5 µg/mL (≈ 37.9 µM)	12.5 µg/mL (≈ 37.9 µM)	25 µg/mL (≈ 75.9 µM)	
Cc1c(OCC(F)(F)F)ccnc1CSc1nc2ccccc2[nH]1 [(V), 2-[{3-Methyl-4-(2,2,2-trifluoroethoxy)pyrid-2-yl}methylthio]-1H-benzimidazole]	12.5 µg/mL (≈ 35.4 µM)	6.25 µg/mL (≈ 17.7 µM)	12.5 µg/mL (≈ 35.4 µM)	25 µg/mL (≈ 70.7 µM)	25 µg/mL (≈ 70.7 µM)	12.5 µg/mL (≈ 35.4 µM)	12.5 µg/mL (≈ 35.4 µM)	12.5 µg/mL (≈ 35.4 µM)	25 µg/mL (≈ 70.7 µM)	12.5 µg/mL (≈ 35.4 µM)	12.5 µg/mL (≈ 35.4 µM)	25 µg/mL (≈ 70.7 µM)	12.5 µg/mL (≈ 35.4 µM)	12.5 µg/mL (≈ 35.4 µM)	25 µg/mL (≈ 70.7 µM)	
Cc1c(OCC(F)(F)C(F)F)ccnc1CSc1nc2ccccc2[nH]1 [JP-A 3-173817 compound (12), 2-[{3-Methyl-4-(2,2,3,3-tetrafluoropropoxy)pyrid-2-yl}methylthio]-1H-benzimidazole]																antibiotic activity [1]: activity against all the tested strains
COCCCOc1ccnc(C[S+]([O-])c2nc3ccccc3[nH]2)c1C (stereo not drawn) [(I), 2-[(4-(3-Methoxypropoxy)-3-methylpyridine-2-yl)-methylsulfinyl]-1H-benzimidazole]	3.13 µg/mL (≈ 8.71 µM)	0.4 µg/mL (≈ 1.11 µM)	3.13 µg/mL (≈ 8.71 µM)	3.13 µg/mL (≈ 8.71 µM)	1.56 µg/mL (≈ 4.34 µM)	3.13 µg/mL (≈ 8.71 µM)	3.13 µg/mL (≈ 8.71 µM)	3.13 µg/mL (≈ 8.71 µM)	3.13 µg/mL (≈ 8.71 µM)	3.13 µg/mL (≈ 8.71 µM)	1.56 µg/mL (≈ 4.34 µM)	3.13 µg/mL (≈ 8.71 µM)	6.25 µg/mL (≈ 17.4 µM)	3.13 µg/mL (≈ 8.71 µM)	3.13 µg/mL (≈ 8.71 µM)	LD50 ([4]; iv, female): 237 mg/kg; LD50 ([4]; iv, male): 220 mg/kg; LD50 ([4]; po, female): 1010 mg/kg; LD50 ([4]; po, male): 1210 mg/kg; C. pylori-eradicating activity (C. pylori [3]): the same C. pylori-eradicating activity as an antibiotic substance; LD50 ([5]; iv, female): 152 mg/kg; LD50 ([5]; iv, male): 157 mg/kg; LD50 ([5]; po, female): 1330 mg/kg; LD50 ([5]; po, male): 1450 mg/kg
CC[C@H]1OC(=O)[C@H](C)[C@@H](O[C@H]2C[C@@](C)(OC)[C@@H](O)[C@H](C)O2)[C@H](C)[C@@H](O[C@@H]2O[C@H](C)C[C@H](N(C)C)[C@H]2O)[C@](C)(O)C[C@@H](C)/C(=N\OCOCCOC)[C@H](C)[C@@H](O)[C@]1(C)O [(VI), roxithromycin]	0.4 µg/mL (≈ 0.478 µM)	0.2 µg/mL (≈ 0.239 µM)	0.1 µg/mL (≈ 0.119 µM)	0.4 µg/mL (≈ 0.478 µM)	0.2 µg/mL (≈ 0.239 µM)	> 100 µg/mL	0.1 µg/mL (≈ 0.119 µM)	50 µg/mL (≈ 59.7 µM)	0.2 µg/mL (≈ 0.239 µM)	0.2 µg/mL (≈ 0.239 µM)	0.2 µg/mL (≈ 0.239 µM)	0.2 µg/mL (≈ 0.239 µM)	0.2 µg/mL (≈ 0.239 µM)	0.2 µg/mL (≈ 0.239 µM)	0.2 µg/mL (≈ 0.239 µM)	
CC1COc2c(N3CCN(C)CC3)c(F)cc3c(=O)c(C(=O)O)cn1c23 (stereo not drawn) [(VIII), ofloxacin]	0.8 µg/mL (≈ 2.21 µM)	0.8 µg/mL (≈ 2.21 µM)	0.4 µg/mL (≈ 1.11 µM)	0.8 µg/mL (≈ 2.21 µM)	0.8 µg/mL (≈ 2.21 µM)	3.13 µg/mL (≈ 8.66 µM)	0.8 µg/mL (≈ 2.21 µM)	25 µg/mL (≈ 69.2 µM)	0.8 µg/mL (≈ 2.21 µM)	0.8 µg/mL (≈ 2.21 µM)	0.4 µg/mL (≈ 1.11 µM)	0.8 µg/mL (≈ 2.21 µM)	0.8 µg/mL (≈ 2.21 µM)	0.4 µg/mL (≈ 1.11 µM)	0.8 µg/mL (≈ 2.21 µM)	
